Data from article PMC8792998 (Journal of medicinal chemistry, 2021).

How the values were obtained:
C. parvum [1] = assay: C. parvum-infected HCT-8 cell assay; assay type: cell-based, Cryptosporidium parvum; settings: for fold loss of potency: Cp HCT-8 EC50, Table 1 linker SAR, comparator not given; for change of potency, in words: Cp HCT-8 assay, Table 1 linker SAR
[2] = tested on: human Ether-a-go-go-Related Gene (hERG); settings: read-out: hERG IC50; reported value; cited from earlier work
hERG [3] = biological target: T1, hERG (Homo sapiens, UniProt Q12809); assay: hERG-CHO automated patch clamp electrophysiology; assay type: cell-based
T1 sequence (Q12809 whole entry): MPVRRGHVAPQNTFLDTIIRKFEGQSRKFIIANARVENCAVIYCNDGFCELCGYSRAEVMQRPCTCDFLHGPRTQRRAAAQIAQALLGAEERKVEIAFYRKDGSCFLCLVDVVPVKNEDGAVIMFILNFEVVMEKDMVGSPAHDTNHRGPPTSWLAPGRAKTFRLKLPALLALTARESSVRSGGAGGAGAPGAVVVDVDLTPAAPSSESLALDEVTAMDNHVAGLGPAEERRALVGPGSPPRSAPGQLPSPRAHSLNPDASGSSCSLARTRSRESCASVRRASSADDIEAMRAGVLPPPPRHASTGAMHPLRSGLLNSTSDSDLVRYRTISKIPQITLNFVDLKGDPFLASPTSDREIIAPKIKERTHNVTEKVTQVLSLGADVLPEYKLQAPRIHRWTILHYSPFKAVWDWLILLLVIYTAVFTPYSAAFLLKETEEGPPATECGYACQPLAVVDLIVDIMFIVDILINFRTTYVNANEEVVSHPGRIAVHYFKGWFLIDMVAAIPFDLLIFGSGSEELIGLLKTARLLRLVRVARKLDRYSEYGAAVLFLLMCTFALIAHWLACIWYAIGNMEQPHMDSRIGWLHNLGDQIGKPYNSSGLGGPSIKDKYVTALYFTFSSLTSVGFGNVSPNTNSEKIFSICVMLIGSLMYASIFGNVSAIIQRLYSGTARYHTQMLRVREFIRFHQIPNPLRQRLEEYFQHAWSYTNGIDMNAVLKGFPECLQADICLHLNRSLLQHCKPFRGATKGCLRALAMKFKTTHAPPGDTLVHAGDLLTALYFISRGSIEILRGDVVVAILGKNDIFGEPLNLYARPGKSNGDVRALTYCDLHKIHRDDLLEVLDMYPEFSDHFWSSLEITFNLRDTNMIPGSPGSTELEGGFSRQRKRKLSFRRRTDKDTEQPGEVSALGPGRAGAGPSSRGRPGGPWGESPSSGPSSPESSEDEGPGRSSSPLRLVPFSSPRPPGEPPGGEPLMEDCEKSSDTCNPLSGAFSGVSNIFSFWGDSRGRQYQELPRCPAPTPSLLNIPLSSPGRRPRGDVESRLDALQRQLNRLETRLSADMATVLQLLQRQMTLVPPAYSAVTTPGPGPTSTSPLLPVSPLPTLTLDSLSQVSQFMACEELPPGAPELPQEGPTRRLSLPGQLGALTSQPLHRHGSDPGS

C. parvum [4] = settings: previous work, cited from earlier work
C. parvum [5] = assay: C. parvum time-kill curve; assay type: cell-based, Cryptosporidium parvum; settings: for effect on parasite numbers in time-kill assay: compound added at multiples of EC90 24 hours after infection
hERG [6] = biological target: T1, hERG; assay: hERG [3H]-dofetilide competitive binding assay; settings: human, probe [3H]-dofetilide
HCT-8 cells = assay: Host cell toxicity, CellTiter AQueous colorimetric assay; assay type: cell-based, human
[7] = Mouse PK study, plasma and jejunum; assay type: in vivo, CD-1 mice; settings: male, CD-1, mouse, iv, 1 mg/kg
[8] = tested on: CYP1A2, CYP2B6, CYP2C8, CYP2D6, CYP3A4; assay: CYP inhibition panel at 10 μM, remaining isoforms; assay type: in vitro ADME; settings: human
C. parvum [9] = assay: NSG mouse model of C. parvum infection; settings: 50 mg/kg twice daily by oral gavage, days 7-10; fecal qPCR; n=4
[10] = biological target: human potassium channel hERG (Homo sapiens, UniProt Q12809); assay: hERG [3H]-dofetilide competitive binding assay; settings: 10 μM; inhibition of [3H]-dofetilide binding
Sequence of human potassium channel hERG (Q12809 whole entry): as above

[11] = biological target: human p-glycoprotein (Pgp) multi-drug resistance (MDR) transporter (Homo sapiens, UniProt P08183); assay: MDR1 transporter assay; assay type: in vitro ADME; settings: 10 μM, 2 hours

Compound: 2-(3,4-dichlorophenyl)-1-(2-methyl-4-{[1,2,4]triazolo[4,3-b]pyridazin-6-yl}piperazin-1-yl)ethan-1-one [Compound 10c]
- fold loss of potency (C. parvum [1]): > 50 fold

Compound: O=C(Nc1ccc(Cl)cc1)N1CCN(c2ccc3nncn3n2)CC1 [Compound 1, reference compound]
- IC50 [2]: ~10 µM
- IC50 (hERG [3]): ~10 µM
- hERG IC50 versus Cp EC90(free) ratio (hERG [3]; safety margin): ~ 4 fold

Compound: O=C(Nc1ccc(Cl)c(Cl)c1)N1CCN(c2ccc3nncn3n2)CC1 [Compound 2, 4-([1,2,4]triazolo[4,3-b]pyridazin-6-yl)-N-(3,4-dichlorophenyl)piperazine-1-carboxamide]
- fold more potent than MMV665917 (C. parvum [4]): about 4 fold
- effect on parasite numbers in time-kill assay (C. parvum [5]): parasite numbers declined exponentially
- inhibition at 10 µM (hERG [6]): ~50%
- inhibition at 1 µM (hERG [3]; human, CHO cells that express hERG): > 40%

Compound: O=C(Nc1ccc(Cl)c(Cl)c1)N1CCCN(c2ccc3nncn3n2)CC1 [Compound 10b, N-(3,4-dichlorophenyl)-4-{[1,2,4]triazolo[4,3-b]pyridazin-6-yl}-1,4-diazepane-1-carboxamide]
- fold loss of potency (C. parvum [1]): > 50 fold

Compound: CN(C(=O)N1CCN(c2ccc3nncn3n2)CC1)c1ccc(Cl)c(Cl)c1 [Compound 11, N-(3,4-dichlorophenyl)-N-methyl-4-{[1,2,4]triazolo[4,3-b]pyridazin-6-yl}piperazine-1-carboxamide]
- change of potency, in words (C. parvum [1]): dramatic loss of potency

Compound: O=C(Cc1ccc(Cl)c(Cl)c1)N1CCN(c2ccc3nncn3n2)CC1 [Compound 12a, 2-(3,4-Dichlorophenyl)-1-(4-{[1,2,4]triazolo[4,3-b]pyridazin-6-yl}piperazin-1-yl)ethan-1-one]
- time of exposure to eliminate 99.9% of parasites (C. parvum [5]; based on estimated decay rate, at six times the EC90): ≤ 98 h
- cytotoxicity in HCT-8 cells, in words (HCT-8 cells): non-cytotoxic in HCT-8 cells
- clearance ([7]; jejunum): 0.7 mL/min/kg
- clearance at 6 h ([7]; plasma): 0.317 mL/min/kg
- inhibition at 10 µM [8]: ≤ 10%
- mice with no parasites detected ten days after completing treatment (C. parvum [9]): 3 of 4 and three of the four
- IC50 (hERG [3]): ~8 µM
- hERG margin using EC50, not corrected for plasma protein binding (hERG [3]; safety margin): > 40 fold

Compound: O=C(c1ccc(Cl)c(Cl)c1)N1CCN(c2ccc3nncn3n2)CC1 [Compound 12b, 1-(3,4-dichlorobenzoyl)-4-{[1,2,4]triazolo[4,3-b]pyridazin-6-yl}piperazine]
- fold loss of potency relative to 12a (C. parvum [1]; Cp HCT-8 EC50): > 100 fold

Compound: O=C(Cc1ccc(Cl)c(Cl)c1)N1CCCN(c2ccc3nncn3n2)CC1 [Compound 12c, 2-(3,4-dichlorophenyl)-1-(4-{[1,2,4]triazolo[4,3-b]pyridazin-6-yl}-1,4-diazepan-1-yl)ethan-1-one]
- fold loss of potency (C. parvum [1]): > 50 fold

Compound: CC1CN(c2ccc3nncn3n2)CCN1C(=O)Cc1ccc(Cl)c(Cl)c1 (stereo not shown) [Compound 12d, 2-(3,4-dichlorophenyl)-1-(2-methyl-4-{[1,2,4]triazolo[4,3-b]pyridazin-6-yl}piperazin-1-yl)ethan-1-one]
- fold loss of potency (C. parvum [1]): > 50 fold

Compound: O=S(=O)(Cc1ccc(Cl)c(Cl)c1)N1CCN(c2ccc3nncn3n2)CC1 [Compound 13, 1-[(3,4-dichlorophenyl)methanesulfonyl]-4-{[1,2,4]triazolo[4,3-b]pyridazin-6-yl}piperazine]
- change of potency, in words (C. parvum [1]): dramatic loss of potency

Compound: O=C(Cc1ccc(F)cc1)N1CCN(c2ccc3nncn3n2)CC1 [Compound 29h, 2-(4-fluorophenyl)-1-(4-{[1,2,4]triazolo[4,3-b]pyridazin-6-yl}piperazin-1-yl)ethan-1-one]
- fold more potent than H (entry 1, 29a) (C. parvum [1]; Cp HCT-8 EC50, Table 2): 18 fold

Compound: O=C(Cc1ccc(Cl)cc1)N1CCN(c2ccc3nncn3n2)CC1 [Compound 29i, 2-(4-chlorophenyl)-1-(4-{[1,2,4]triazolo[4,3-b]pyridazin-6-yl}piperazin-1-yl)ethan-1-one]
- fold more potent than H (entry 1, 29a) (C. parvum [1]; Cp HCT-8 EC50, Table 2): 25 fold

Compound: O=C(Cc1cccc(Cl)c1)N1CCN(c2ccc3nncn3n2)CC1 [Compound 29j, 2-(3-chlorophenyl)-1-(4-{[1,2,4]triazolo[4,3-b]pyridazin-6-yl}piperazin-1-yl)ethan-1-one]
- fold less potent than chlorine in the 4-position (C. parvum [1]; Cp HCT-8 EC50, Table 2): 4 fold

Compound: CC(=O)Oc1ccccc1C(=O)Nc1ncc([N+](=O)[O-])s1 [NTZ, nitazoxanide, reference compound]
- EC50 (C. parvum [4]; read-out: EC50, parasite growth in vitro): 3.8 µM
- host cell cytotoxicity in time-kill assay (C. parvum [5]; HCT-8 cultures): cytotoxic at concentrations above the EC90
- effect on parasite numbers in time-kill assay (C. parvum [5]): blocked C. parvum growth without eliminating the parasite from HCT-8 cultures

Compound: N-(3,4-dichlorophenyl)-4-{[1,2,4]triazolo[4,3-b]pyridazin-6-yl}cyclohex-3-ene-1-carboxamide [Compound 18a]
- hERG binding, %inh [10]: 56%
- change of potency, in words (C. parvum [1]): equipotent to its N-linked counterpart 2
- MDCK-MDR Efflux Ratio [11]: 6.5
